Here are results for 19 molecules from patent publication US4065456A, “Glycerol derivatives of quinoline carbostyryl and isocarbo styryl” (Otsuka Pharmaceutical Co., Ltd., priority 1973, dated 1977).

The subject of experiment [1] is ADP-Induced Aggregation In Rabbit Platelets. As to the kind of experiment: Inhibition of ADP-induced aggregation in rabbit platelets (aggregometer, PRP). Format: cell-based. As to conditions: Oryctolagus cuniculus, Platelet, ADP 7.5 × 10^-5 M, PRP 300,000 platelets/mm^3; for inhibition at 100 µM: concentration 10^-4 M; for inhibition at 1 µM: concentration 10^-6 M; for inhibition at 0.01 µM: concentration 10^-8 M; for inhibition at 10 µM: concentration 10^-5 M. The protocol:
(§1) The inhibitory activity of some compounds of this invention and the method for determination of the activity are described hereinafter in greater detail.
(§2) The aggregation inhibitory activity was determined using an AG-II type aggregometer (made by Bryston Manufacturing Co.). A blood sample was withdrawn from rabbits as a mixture of sodium citrate and whole blood in a proportion of 1:9 by volume and centrifuged at 1000 rpm for 10 minutes to obtain a platelet rich plasma (PRP). The resulting PRP was separated, and the remaining blood sample was further centrifuged at 3000 rpm for 15 minutes to obtain a platelet poor plasma (PPP).
(§3) The number of platelets in the PRP was counted in accordance with the Brecher-Clonkite Method, and the PRP was diluted with the PPP to prepare a PRP sample containing platelets in an amount of 300,000/mm^3 for an adenosine diphosphate (ADP)-induced aggregation test and a PRP sample containing platelets in an amount of 450,000/mm^3 for a collagen-induced aggregation test.
(§4) 0.01 ml of a solution of a test compound having a predetermined concentration (as shown in the Tables below) was then added to 0.6 ml of the PRP sample obtained above and the mixture was incubated at a temperature of 37° C for 1 minute. Then 0.07 ml of an ADP or collagen solution was added to the mixture. The mixture was then subjected to a transmittance determination and changes in the transmittance of the mixture were recorded using aggregometer at a stirrer rotation rate of 1100 rpm. In this test, Owren Veronal buffer (pH 7.35) was used for the preparation of solutions of ADP, collgen and the test compounds. ADP was adjusted to a concentration of 7.5 × 10^-5 M, and the collagen solution was prepared by triturating 100 mg of collagen with 5 ml of the above buffer and the supernatant obtained was used as a collagen inducer. Adenosine and acetylsalicylic acid were used as controls for the ADP-induced aggregation test and the collagen-induced aggregation test, respectively. The aggregation inhibitory activity was determined in terms of the percent inhibition (%) with respect to the aggregation ratio of controls. The aggregation ratio can be calculated by the following equation: [formula] Wherein:
(§5) "a" is the optical density of the PRP,
(§6) "b" is the optical density of the PRP having incorporated therein a test compound and an aggregation inducer, and
(§7) "c" is the optical density of the PPP.

Experiment [2] deals with Collagen-Induced Aggregation In Rabbit Platelets. The experiment can be described thus: Inhibition of collagen-induced aggregation in rabbit platelets (aggregometer, PRP). It counts as cell-based. Particulars: Oryctolagus cuniculus, Platelet, PRP 450,000 platelets/mm^3; for inhibition at 100 µM: concentration 10^-4 M; for inhibition at 10 µM: concentration 10^-5 M; for inhibition at 1 µM: concentration 10^-6 M; for inhibition at 0.01 µM: concentration 10^-8 M. The protocol: as §1, §2, §3, §4, §5, §6, §7

By inhibition is commonly meant the percentage by which the read-out fell short of the control. High values mean a response far below the control, low ones a response near the control. On to `OCC(O)COc1cccc2c(O)nccc12` (centres unmarked), for which, in experiment [1] (table 3), the inhibition at 100 µM is 2%, at 1 µM the inhibition was 6% and at 0.01 µM the inhibition was 0%.
In experiment [2] (table 5), `CC(=O)Oc1ccccc1C(=O)O` [Acetylsalicylic Acid, reference compound] gave an inhibition at 100 µM of 100%, an inhibition at 10 µM of 12% and an inhibition at 1 µM of 8%.
In experiment [1] (table 3), `Nc1ncnc2c1ncn2[C@@H]1O[C@H](CO)[C@@H](O)[C@H]1O` [Adenosine, reference compound] displayed an inhibition at 100 µM of 70%, an inhibition at 1 µM of 47% and an inhibition at 0.01 µM of 5%. For the same molecule, in experiment [1] (table 4), the inhibition at 100 µM is 92%, the inhibition at 10 µM was determined as 74%, the inhibition at 1 µM worked out at 63% and the inhibition at 0.01 µM turned out to be 15%.
Take `O=C1CCc2c(cccc2OCC(O)CO)N1` (centres unmarked) [drawing 32]: in experiment [2] (table 2), at 100 µM the inhibition was 100%, the inhibition at 1 µM turned out to be 11% and at 0.01 µM the inhibition was 8%.
In the case of `CN1C(=O)CCc2c(OCC(O)CO)cccc21` (centres unmarked) [drawing 33], in experiment [2] (table 2), the inhibition at 100 µM was found to be 7%, testing at 1 µM gave an inhibition of 13% and the inhibition at 0.01 µM is 0%.
In experiment [2] (table 2), `C=CCN1C(=O)CCc2c(OCC(O)CO)cccc21` (centres unmarked) [drawing 34] returned an inhibition at 100 µM of 0%, an inhibition at 1 µM of 0% and an inhibition at 0.01 µM of 0%.
As to `O=C1CCc2cc(OCC(O)CO)ccc2N1` (centres unmarked) [drawing 35], in experiment [2] (table 2), the inhibition at 100 µM worked out at 100%, at 1 µM the inhibition was 9% and at 0.01 µM the inhibition was 26%.
In experiment [2] (table 2), `O=C1CCc2ccc(OCC(O)CO)cc2N1` (centres unmarked) [drawing 36] showed an inhibition at 100 µM of 13%, an inhibition at 1 µM of 18% and an inhibition at 0.01 µM of 4%.
On to `O=C1CCc2cccc(OCC(O)CO)c2N1` (centres unmarked) [drawing 37], for which, in experiment [2] (table 2), the inhibition at 100 µM is 25%, the inhibition at 1 µM was determined as 7% and testing at 0.01 µM gave an inhibition of 21%.
In experiment [1] (table 3), `O=C1CCc2c(cccc2OCC(O)CO)N1` (centres unmarked) [drawing 38] had an inhibition at 100 µM of 21%, an inhibition at 1 µM of 17% and an inhibition at 0.01 µM of 21%.
Regarding `CN1C(=O)CCc2c(OCC(O)CO)cccc21` (centres unmarked) [drawing 39], in experiment [1] (table 3), 100 µM produced 7% inhibition, the inhibition at 1 µM amounted to 13% and the inhibition at 0.01 µM turned out to be 0%.
The corresponding values for `C=CCN1C(=O)CCc2c(OCC(O)CO)cccc21` (centres unmarked) [drawing 40] are 0%, 0% and 0%.
On to `O=C1CCc2cc(OCC(O)CO)ccc2N1` (centres unmarked) [drawing 41], for which, in experiment [1] (table 3), 100 µM produced 100% inhibition, the inhibition at 1 µM was determined as 9% and the inhibition at 0.01 µM is 26%.
As to `O=C1CCc2ccc(OCC(O)CO)cc2N1` (centres unmarked) [drawing 42], in experiment [1] (table 3), at 100 µM the inhibition was 13%, at 1 µM the inhibition was 18% and at 0.01 µM the inhibition was 4%.
In experiment [1] (table 3), `O=C1CCc2cccc(OCC(O)CO)c2N1` (centres unmarked) [drawing 43] had an inhibition at 100 µM of 25%, an inhibition at 1 µM of 7% and an inhibition at 0.01 µM of 21%.
As for `O=C1CCc2c(cccc2OC[C@H](O)CO)N1` [drawing 46], in experiment [1] (table 4), the inhibition at 100 µM amounted to 49%, the inhibition at 10 µM stood at 16%, 1 µM produced 8% inhibition and the inhibition at 0.01 µM was 0%.
For `O=C1CCc2c(cccc2OCC(O)CO)N1` (centres unmarked) [drawing 47], in that order: 51%, 18%, 18% and 15%.
For `O=C1CCc2c(cccc2OC[C@H](O)CO)N1` [drawing 48], in experiment [2] (table 5), the inhibition at 100 µM came to 95%, the inhibition at 10 µM came to 3%, 1 µM produced 3% inhibition and the inhibition at 0.01 µM came out at 0%.
Regarding `O=C1CCc2c(cccc2OCC(O)CO)N1` (centres unmarked) [drawing 49], in experiment [2] (table 5), the inhibition at 100 µM came to 95%, the inhibition at 10 µM was determined as 17%, 1 µM produced 7% inhibition and the inhibition at 0.01 µM turned out to be 3%.
